Measurements reported in ChEMBL document CHEMBL5550132, “Structure-activity relationship in NOD2 agonistic muramyl dipeptides” (Eur J Med Chem, 2024).

target: Nuclear factor NF-kappa-B complex (Homo sapiens) (UniProt Q00653+P19838+Q04206); test: Activation of NF-KappaB (unknown origin) expressed in HEK293T cells assessed as fold change at 1 uM incubated for 12 hrs by Renilla luciferase assay; format: cell-based; settings: filed as activator
Sequence (P19838 whole entry, looked up): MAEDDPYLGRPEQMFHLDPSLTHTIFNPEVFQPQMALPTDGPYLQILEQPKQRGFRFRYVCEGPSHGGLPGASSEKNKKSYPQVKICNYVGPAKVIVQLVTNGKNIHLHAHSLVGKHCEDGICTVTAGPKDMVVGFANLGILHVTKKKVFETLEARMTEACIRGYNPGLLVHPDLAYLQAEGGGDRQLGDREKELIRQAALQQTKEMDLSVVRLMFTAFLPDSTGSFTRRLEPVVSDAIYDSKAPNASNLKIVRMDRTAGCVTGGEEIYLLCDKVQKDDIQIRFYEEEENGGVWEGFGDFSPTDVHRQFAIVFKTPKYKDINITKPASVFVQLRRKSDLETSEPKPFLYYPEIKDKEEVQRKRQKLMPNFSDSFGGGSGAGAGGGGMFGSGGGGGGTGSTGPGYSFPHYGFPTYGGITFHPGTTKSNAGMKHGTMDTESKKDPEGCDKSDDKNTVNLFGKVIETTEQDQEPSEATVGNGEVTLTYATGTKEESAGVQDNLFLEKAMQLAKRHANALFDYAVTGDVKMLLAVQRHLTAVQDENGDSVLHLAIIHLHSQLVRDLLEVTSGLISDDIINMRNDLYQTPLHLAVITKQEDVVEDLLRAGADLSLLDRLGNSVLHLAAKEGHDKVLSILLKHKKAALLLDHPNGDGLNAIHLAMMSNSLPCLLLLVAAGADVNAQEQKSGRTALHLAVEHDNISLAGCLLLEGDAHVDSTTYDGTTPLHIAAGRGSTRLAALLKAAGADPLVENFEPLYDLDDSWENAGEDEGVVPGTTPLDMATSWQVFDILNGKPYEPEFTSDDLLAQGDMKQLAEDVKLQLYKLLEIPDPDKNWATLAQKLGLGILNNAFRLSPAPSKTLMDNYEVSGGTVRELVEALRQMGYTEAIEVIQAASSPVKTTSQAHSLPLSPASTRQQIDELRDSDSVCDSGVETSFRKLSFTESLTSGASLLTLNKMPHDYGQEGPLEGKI
Sequence (Q00653 whole entry, looked up): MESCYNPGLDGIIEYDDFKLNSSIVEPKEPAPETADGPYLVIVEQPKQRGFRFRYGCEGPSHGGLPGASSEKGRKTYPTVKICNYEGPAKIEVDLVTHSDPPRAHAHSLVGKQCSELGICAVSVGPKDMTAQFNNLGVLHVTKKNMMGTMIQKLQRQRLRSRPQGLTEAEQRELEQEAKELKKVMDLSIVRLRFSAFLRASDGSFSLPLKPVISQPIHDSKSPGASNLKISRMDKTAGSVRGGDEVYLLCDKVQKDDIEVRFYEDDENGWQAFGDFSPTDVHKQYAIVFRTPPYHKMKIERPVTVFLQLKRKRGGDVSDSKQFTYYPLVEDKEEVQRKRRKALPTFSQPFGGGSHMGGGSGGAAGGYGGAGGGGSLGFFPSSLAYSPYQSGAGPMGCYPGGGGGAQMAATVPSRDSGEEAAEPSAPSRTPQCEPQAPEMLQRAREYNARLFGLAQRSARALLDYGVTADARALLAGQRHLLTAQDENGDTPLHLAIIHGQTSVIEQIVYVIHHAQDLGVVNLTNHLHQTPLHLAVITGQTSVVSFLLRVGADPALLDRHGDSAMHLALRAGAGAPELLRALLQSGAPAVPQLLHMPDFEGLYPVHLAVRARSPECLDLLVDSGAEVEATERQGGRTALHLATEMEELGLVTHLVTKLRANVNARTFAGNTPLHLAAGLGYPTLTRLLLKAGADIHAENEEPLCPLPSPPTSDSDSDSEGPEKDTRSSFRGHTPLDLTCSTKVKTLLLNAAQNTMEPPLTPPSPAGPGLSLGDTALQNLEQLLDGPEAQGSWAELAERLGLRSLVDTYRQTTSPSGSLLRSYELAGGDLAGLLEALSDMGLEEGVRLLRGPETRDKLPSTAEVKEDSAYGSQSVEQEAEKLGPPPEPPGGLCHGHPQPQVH
Sequence (Q04206 whole entry, looked up): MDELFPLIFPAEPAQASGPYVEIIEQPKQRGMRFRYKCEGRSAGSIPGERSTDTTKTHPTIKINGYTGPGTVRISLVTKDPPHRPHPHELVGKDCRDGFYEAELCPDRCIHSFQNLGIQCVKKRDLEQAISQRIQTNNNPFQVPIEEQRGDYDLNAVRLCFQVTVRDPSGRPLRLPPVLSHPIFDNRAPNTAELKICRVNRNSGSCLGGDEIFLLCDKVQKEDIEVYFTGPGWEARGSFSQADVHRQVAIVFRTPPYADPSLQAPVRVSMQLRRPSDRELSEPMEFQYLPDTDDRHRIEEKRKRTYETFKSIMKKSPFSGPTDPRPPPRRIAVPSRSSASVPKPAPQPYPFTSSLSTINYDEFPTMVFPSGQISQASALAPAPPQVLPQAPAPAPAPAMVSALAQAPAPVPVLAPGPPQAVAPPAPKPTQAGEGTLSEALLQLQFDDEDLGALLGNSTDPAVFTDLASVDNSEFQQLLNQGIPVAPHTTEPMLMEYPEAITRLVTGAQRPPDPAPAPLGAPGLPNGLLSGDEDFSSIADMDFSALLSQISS

fold change (FC) | SMILES
2.4 | CCCCCCCCC(=O)N[C@@H]1[C@@H](O[C@H](C)C(=O)N[C@@H](C)C(=O)N[C@H](CCC(=O)O)C(N)=O)[C@H](O)[C@@H](CO)O[C@H]1O
6.2 | CO[C@@H]1O[C@H](CO)[C@@H](O)[C@H](O[C@H](C)C(=O)N[C@@H](C)C(=O)N[C@H](CCC(=O)O)C(N)=O)[C@H]1N
4.45 | CO[C@@H]1O[C@H](CO)[C@@H](O)[C@H](O[C@H](C)C(=O)N[C@@H](C)C(=O)N[C@H](CCC(=O)O)C(N)=O)[C@H]1NC(=O)Cc1ccccc1
4.5 | CCCCCO[C@@H]1O[C@H](CO)[C@@H](O)[C@H](O[C@H](C)C(=O)N[C@@H](C)C(=O)N[C@H](CCC(=O)O)C(N)=O)[C@H]1NC(=O)CO
4.6 | C[C@H](NC(=O)[C@@H](C)O[C@@H]1[C@@H](N)[C@H](O)O[C@H](CO)[C@H]1O)C(=O)N[C@H](CCC(=O)O)C(N)=O
5.55 | COCC(=O)N[C@H]1[C@H](OC)O[C@H](CO)[C@@H](O)[C@@H]1O[C@H](C)C(=O)N[C@@H](C)C(=O)N[C@H](CCC(=O)O)C(N)=O
5.9 | CO[C@@H]1O[C@H](CO)[C@@H](O)[C@H](O[C@H](C)C(=O)N[C@@H](C)C(=O)N[C@H](CCC(=O)O)C(N)=O)[C@H]1NC(=O)CO
4.5 | C[C@H](NC(=O)[C@@H](C)O[C@H]1[C@H](O)[C@@H](CO)O[C@@H](O)[C@@H]1NC(=O)CO)C(=O)N[C@H](CCC(=O)O)C(N)=O
4.85 | CCCCCCCCCCCO[C@@H]1O[C@H](CO)[C@@H](O)[C@H](O[C@H](C)C(=O)N[C@@H](C)C(=O)N[C@H](CCC(=O)O)C(N)=O)[C@H]1NC(=O)CO
5 | C[C@H](NC(=O)[C@@H](C)O[C@H]1[C@H](O)[C@@H](CO)O[C@@H](OCCCCN)[C@@H]1NC(=O)CO)C(=O)N[C@H](CCC(=O)O)C(N)=O
5.8 | C[C@H](NC(=O)CO[C@H]1[C@H](O)[C@@H](CO)O[C@@H](O)[C@@H]1NC(=O)CO)C(=O)N[C@H](CCC(=O)O)C(N)=O
5 | CO[C@@H]1O[C@H](CO)[C@@H](O)[C@H](O[C@H](C)C(=O)N[C@@H](C)C(=O)N[C@H](CCC(=O)O)C(N)=O)[C@H]1NC(=O)Cc1c(F)c(F)c(F)c(F)c1F
3.85 | C[C@H](NC(=O)[C@@H](C)O[C@H]1[C@H](O)[C@@H](CO)O[C@@H](O)[C@@H]1NC(=O)Cc1ccccc1)C(=O)N[C@H](CCC(=O)O)C(N)=O
5.4 | C[C@H](NC(=O)[C@@H](C)O[C@H]1[C@H](O)[C@@H](CO)O[C@@H](O)[C@@H]1NC(=O)Cc1c(F)c(F)c(F)c(F)c1F)C(=O)N[C@H](CCC(=O)O)C(N)=O
4.5 | CCCCC(=O)N[C@@H]1[C@@H](O[C@H](C)C(=O)N[C@@H](C)C(=O)N[C@H](CCC(=O)O)C(N)=O)[C@H](O)[C@@H](CO)O[C@H]1O
4.3 | CCCCCCCCC(=O)N[C@H]1[C@H](OC)O[C@H](CO)[C@@H](O)[C@@H]1O[C@H](C)C(=O)N[C@@H](C)C(=O)N[C@H](CCC(=O)O)C(N)=O
4.4 | COCC(=O)N[C@@H]1[C@@H](O[C@H](C)C(=O)N[C@@H](C)C(=O)N[C@H](CCC(=O)O)C(N)=O)[C@H](O)[C@@H](CO)O[C@H]1O
4.5 | C[C@H](NC(=O)[C@@H](C)O[C@H]1[C@H](O)[C@@H](CO)O[C@@H](O)[C@@H]1NC(=O)CN)C(=O)N[C@H](CCC(=O)O)C(N)=O
5.25 | CCCCC(=O)N[C@H]1[C@H](OC)O[C@H](CO)[C@@H](O)[C@@H]1O[C@H](C)C(=O)N[C@@H](C)C(=O)N[C@H](CCC(=O)O)C(N)=O

species: Cavia porcellus; test: Induction of delayed type hypersensitivity in ABA-BSA immunized Hartley Guinea pigs assessed as reduction in skin lesions at 100 ug measured for 24 hrs; format: functional; settings: dose 100 µg

SMILES | Activity [mm]
CC(=O)N[C@@H]1[C@@H](O[C@H](C)C(=O)N[C@H](C(=O)N[C@H](CCC(=O)O)C(N)=O)C(C)C)[C@H](O)[C@@H](CN)O[C@H]1O | 20.4
CC(=O)N[C@@H]1[C@@H](O[C@H](C)C(=O)N[C@@H](CO)C(=O)N[C@H](CCC(=O)O)C(N)=O)[C@H](O)[C@@H](CN)O[C@H]1O | 21.6

species: Cavia porcellus; test: Induction of delayed type hypersensitivity in ABA-BSA immunized Hartley Guinea pigs assessed as reduction in skin lesions at 100 ug measured for 48 hrs; format: functional; settings: dose 100 µg

SMILES | Activity [mm]
CC(=O)N[C@@H]1[C@@H](O[C@H](C)C(=O)N[C@H](C(=O)N[C@H](CCC(=O)O)C(N)=O)C(C)C)[C@H](O)[C@@H](CN)O[C@H]1O | 15.3
CC(=O)N[C@@H]1[C@@H](O[C@H](C)C(=O)N[C@@H](CO)C(=O)N[C@H](CCC(=O)O)C(N)=O)[C@H](O)[C@@H](CN)O[C@H]1O | 22.3
